Data from patent US20020026053A1, “Novel 3-(substituted) -2- indolinones compounds and use thereof as inhibitors of protein kinase activity” (priority 1997, published 2002).

Columns and labels:
PDGF-R = PDGF-R Assay (cellular ELISA, U1242 cells); assay type: cell-based; design: concentration or dose not given beside the values
Outline: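 Cellular ELISA for receptor autophosphorylation: after 2 hr test-compound treatment of serum-free U1242 cells at 37°C, ligand is added for 5–10 min, cells are lysed (HNTG) and receptor captured by specific antibody. Anti-phosphotyrosine plus secondary antibody with ABTS colour read at 410/630 nm, compared with compound-free control cells.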

FLK-1 receptor = assay: FLK-1 Assay (cellular/catalytic ELISA, VEGF-stimulated phosphotyrosine); assay type: cell-based; design: concentration or dose not given beside the values
Outline: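 Receptor phosphotyrosine ELISA: Flk-1-expressing NIH3T3 C7#3 cells, starved overnight in 0.1% FBS medium, received compound (1:200 final dilution, 0.5% DMSO) for 2 h at 37 °C, then VEGF. Anti-FLK-1-captured receptor was probed with anti-phosphotyrosine UB40 and peroxidase/ABTS read-out, relative to cells without compound.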

Compound	PDGF Kinase % Inhibition (P.119) (PDGF-R) [%]	Flk Kinase % Inhibition (P.110) (FLK-1 receptor) [%]
O=C1Nc2c(Br)cc(Br)cc2C1=Cc1ccccc1Cl [10736/A11]	−5.6	−12.4
O=C1Nc2ccc(I)cc2C1=Cc1ccc(Cl)cc1 [10736/B02]	−10.0	1.0
O=C1Nc2ccc(I)cc2C1=Cc1ccccc1C(F)(F)F [10736/B03]	63.2	11.3
Cc1cccc(C=C2C(=O)Nc3ccc(I)cc32)c1 [10736/B04]	11.9	3.0
Cc1ccc(C=C2C(=O)Nc3ccc(I)cc32)cc1 [10736/B05]	−3.0	−0.5
O=C1Nc2ccc(I)cc2C1=Cc1cccc(Cl)c1 [10736/B06]	20.7	3.8
O=C1Nc2ccc(I)cc2C1=Cc1cccc(F)c1 [10736/B07]	20.7	4.0
O=C1Nc2ccc(I)cc2C1=Cc1ccccc1F [10736/B08]	−0.4	5.0
CCc1ccc(C=C2C(=O)Nc3ccc(I)cc32)cc1 [10736/B09]	7.1	8.0
COc1cccc(C=C2C(=O)Nc3ccc(I)cc32)c1 [10736/B10]	1.8	2.5
O=C1Nc2ccc(I)cc2C1=Cc1ccccc1Cl [10736/B11]	−15.3	7.3
Cc1c(Br)ccc2c1C(=Cc1ccc(Cl)cc1)C(=O)N2 [10736/C02]	2.7	−0.9
Cc1c(Br)ccc2c1C(=Cc1ccccc1C(F)(F)F)C(=O)N2 [10736/C03]	25.5	6.5
Cc1cccc(C=C2C(=O)Nc3ccc(Br)c(C)c32)c1 [10736/C04]	8.4	2.8
Cc1ccc(C=C2C(=O)Nc3ccc(Br)c(C)c32)cc1 [10736/C05]	16.7	4.6
Cc1c(Br)ccc2c1C(=Cc1cccc(Cl)c1)C(=O)N2 [10736/C06]	26.4	6.2

Compound	PDGF Kinase % Inhibition (P.119) (PDGF-R) [%]	Flk Kinase % Inhibition (P.110) (FLK-1 receptor) [%]
Cc1c(Br)ccc2c1C(=Cc1cccc(F)c1)C(=O)N2 [10736/C07]	14.1	4.4
Cc1c(Br)ccc2c1C(=Cc1ccccc1F)C(=O)N2 [10736/C08]	1.4	3.1
CCc1ccc(C=C2C(=O)Nc3ccc(Br)c(C)c32)cc1 [10736/C09]	−9.6	11.2
COc1cccc(C=C2C(=O)Nc3ccc(Br)c(C)c32)c1 [10736/C10]	1.4	1.1
Cc1c(Br)ccc2c1C(=Cc1ccccc1Cl)C(=O)N2 [10736/C11]	0.5	7.2
CNS(=O)(=O)c1ccc2c(c1)C(=Cc1ccc(Cl)cc1)C(=O)N2 [10736/D02]	−10.5	5.8
CNS(=O)(=O)c1ccc2c(c1)C(=Cc1ccccc1C(F)(F)F)C(=O)N2 [10736/D03]	14.5	5.4
CNS(=O)(=O)c1ccc2c(c1)C(=Cc1cccc(C)c1)C(=O)N2 [10736/D04]	15.0	4.3
CNS(=O)(=O)c1ccc2c(c1)C(=Cc1ccc(C)cc1)C(=O)N2 [10736/D05]	3.6	15.2
CNS(=O)(=O)c1ccc2c(c1)C(=Cc1cccc(Cl)c1)C(=O)N2 [10736/D06]	19.8	12.2
CNS(=O)(=O)c1ccc2c(c1)C(=Cc1cccc(F)c1)C(=O)N2 [10736/D07]	4.4	7.0
CNS(=O)(=O)c1ccc2c(c1)C(=Cc1ccccc1F)C(=O)N2 [10736/D08]	1.8	11.0
CCc1ccc(C=C2C(=O)Nc3ccc(S(=O)(=O)NC)cc32)cc1 [10736/D09]	−6.5	8.5
CNS(=O)(=O)c1ccc2c(c1)C(=Cc1cccc(OC)c1)C(=O)N2 [10736/D10]	−2.1	−11.6
CNS(=O)(=O)c1ccc2c(c1)C(=Cc1ccccc1Cl)C(=O)N2 [10736/D11]	−4.3	12.5
O=C1Nc2ccc(S(=O)(=O)Nc3ccc(C(F)(F)F)cc3)cc2C1=Cc1ccc(Cl)cc1 [10736/E02]	21.5	8.2
